Experimental data published in article PMC7712428, “Dimethoate Induces DNA Damage and Mitochondrial Dysfunction Triggering Apoptosis in Rat Bone-Marrow and Peripheral Blood Cells” (Toxics, 2020).
Values joined by “and” are separate entries in the source; they are usually repeats but may differ in a detail not shown here. Identical values can stand only once. Like-named read-outs stand apart in the source and are kept apart here.

Columns and labels:
peripheral blood cells = settings: for Olive Tail Moment / Tail Length (µm): Mean ± SD
Source text: (§1) The experimental animals—Rattus norvegicus (Wistar strain; 8–10 weeks old; 120 ± 20 gm; males only) were acquired from Indian Institute of Integrative Medicine (IIIM-CSIR) (Jammu, India), quarantined, acclimatized and sacrificed as per standard practice conforming to the University Ethical Regulations. After acclimatization, rats were divided into five groups by stratified randomization with five animals per group. […] Distilled water was used to prepare dosing solutions of test agent and injected via intraperitoneal (i.p.) injection. At 24, 48 and 72 h post-dosing, 5 rats per duration were sacrificed and necessary tissues were isolated for different cytogenetic and molecular parameters. For CA assessment, separate experimental lot was used due to colchicine treatment.
Detection of DNA strand break was performed according to protocol of Singh et al. with some modifications. Briefly, blood was collected using Retro-orbital bleeding during euthanasia. 10μL whole blood cells obtained were mixed with 75 µL of 0.5% LMPA and layered onto frosted slides which was pre-coated with NMA. After putting cover slip, slides were kept for 5–10min. After gelling, removed cover slip gently and added a layer of 90 μL of LMPA. After replacing the cover slip, slides were placed on the slide tray (ice packs) till the agarose layer hardened (5–10 min). Following this, removed the cover slip and by gently immersing the slides in lysis buffer embedded cells were lysed. Cells lysis was performed in cold conditions for a minimum of 2 h in lysing solution.
Alkaline conditions (pH > 13) were used to perform the electrophoresis. After lysis, slides were subjected in electrophoretic buffer at 4 °C for 40 min to achieve the DNA denaturation that allow the DNA unwinding and the expression of alkali labile site. Electrophoresis was then carried out at 0.74 V/cm for 40 min (300 mA; 24 volts) at 4 °C by raising or lowering buffer. Thereafter, neutralization buffer (0.4 M Tris, 10 M HCl; pH = 7.5) were employed to wash the slides. Slides were stained by 80 μL of 1× Ethidium Bromide and excess stain was removed by dipping in chilled distilled water. Slides were examined at 40× magnification under fluorescence microscope coupled with a charge coupled device camera (Olympus).

Platelets = settings: 72 h treatment
bone marrow cells = settings: for Total Aberrations (Mean ± SD): mean percentage; for MI (Mean ± SD): mitotic index mean percentage; for Structural Aberrations Assoc: number of associations; for Structural Aberrations Brk: number of breaks; for Structural Aberrations Del: number of deletions
Source text: as §1
Method of Preston et al. was used for preparing the metaphase chromosomes. An aqueous solution of Colchicine (4 mg/kgbw) was injected intraperitoneally 2 h prior to sacrificing the animal. Pre-warm KCL (0.075 M) solution was used to collect the bone marrow cells followed by incubation at 37 °C for 20 min, and then centrifuge at 1000 rpm for 10 min. After fixing the pellet in cold Cornoy’s fixative dropped onto clean pre-chilled glass slide in 30% ethanol and dried in air. 5% buffered Giemsa (pH 7.0) was used for staining. Chromosomal aberrations were analyzed on properly separated metaphases and finally photographed at 100× (Olympus U—PMTV microscope), using oil immersion. The metaphase cells from approximately 1000 cells per concentration per animal both in exposed and control replicates, expressed in percentage were considered for mitotic indices (MI).

CNC(=O)CSP(=S)(OC)OC [DM, 0,0- Dimethyl S-(N-methylcarbamoylmethyl) phosphorodithiote]
Olive Tail Moment (peripheral blood cells; 20 mg/kgbw, 24 h): 5.65 ± 0.33 ***^,a
Tail Length (µm) (peripheral blood cells; 20 mg/kgbw, 24 h): 22.44 µm and 22.44 ± 2.07 ***^,a µm
Olive Tail Moment (peripheral blood cells; 20 mg/kgbw, 48 h): 4.01 ± 0.48 ***^,a
Tail Length (µm) (peripheral blood cells; 20 mg/kgbw, 48 h): 19.26 ± 1.00 *^,a µm
Olive Tail Moment (peripheral blood cells; 20 mg/kgbw, 72 h): 2.71 ± 0.31 *^,a
Tail Length (µm) (peripheral blood cells; 20 mg/kgbw, 72 h): 16.16 ± 1.35 *^,a µm
Tail Length (µm) (peripheral blood cells; 40 mg/kgbw, 24 h): 24.37 ± 1.66 ***^,a,b µm
Olive Tail Moment (peripheral blood cells; 40 mg/kgbw, 48 h): 5.35 ± 0.48 ***^,a,*^,b
Tail Length (µm) (peripheral blood cells; 40 mg/kgbw, 48 h): 25.07 ± 1.87 ***^,a,b µm
Olive Tail Moment (peripheral blood cells; 40 mg/kgbw, 72 h): 3.13 ± 0.28 *^,a
Tail Length (µm) (peripheral blood cells; 40 mg/kgbw, 72 h): 21.12 ± 1.45 ***^,a µm
Tail Length (µm) (peripheral blood cells; 60 mg/kgbw, 24 h): 30.09 µm and 30.09 ± 2.86 ***^,a,b µm
Olive Tail Moment (peripheral blood cells; 60 mg/kgbw, 48 h): 6.46 ± 0.64 ***^,a,b,c
Tail Length (µm) (peripheral blood cells; 60 mg/kgbw, 48 h): 27.63 ± 3.12 ***^,a,c,**^,b µm
Olive Tail Moment (peripheral blood cells; 60 mg/kgbw, 72 h): 4.84 ± 0.41 **^,a
Tail Length (µm) (peripheral blood cells; 60 mg/kgbw, 72 h): 20.37 ± 1.59 *^,a,c µm
increase of OTM vis-a-vis negative control (peripheral blood cells; single dose of 10 mg DM/kgbw, 24 h): ~5 fold
MMP loss (membrane potential loss) (Platelets): greater than 90%
Total Aberrations (Mean ± SD) (bone marrow cells; 20 mg/kgbw, 24 h): 5.66 ± 1.03 **^,a %
Total Aberrations (Mean ± SD) (bone marrow cells; 20 mg/kgbw, 48 h): 5.33 ± 1.43 **^,a %
Total Aberrations (Mean ± SD) (bone marrow cells; 20 mg/kgbw, 72 h): 2.17 ± 0.83 *^,a %
Total Aberrations (Mean ± SD) (bone marrow cells; 40 mg/kgbw, 24 h): 5.83 ± 1.69 **^,a %
Total Aberrations (Mean ± SD) (bone marrow cells; 40 mg/kgbw, 48 h): 5.16 ± 1.74 **^,a %
Total Aberrations (Mean ± SD) (bone marrow cells; 40 mg/kgbw, 72 h): 2.67 ± 0.75 *^,a %
Total Aberrations (Mean ± SD) (bone marrow cells; 60 mg/kgbw, 24 h): 7.50 ± 1.15% and 7.50 ± 1.15 **^,a,*^,b %
Total Aberrations (Mean ± SD) (bone marrow cells; 60 mg/kgbw, 48 h): 6.83 ± 1.90 **^,a %
Total Aberrations (Mean ± SD) (bone marrow cells; 60 mg/kgbw, 72 h): 3.16 ± 0.71 *^,a %
MI (Mean ± SD) (bone marrow cells; 20 mg/kgbw, 24 h): 2.19 ± 0.21 *^,a %
MI (Mean ± SD) (bone marrow cells; 20 mg/kgbw, 48 h): 2.04 ± 0.15 *^,a %
MI (Mean ± SD) (bone marrow cells; 20 mg/kgbw, 72 h): 2.07 ± 0.10 *^,a %
MI (Mean ± SD) (bone marrow cells; 40 mg/kgbw, 24 h): 2.16 ± 0.16 *^,a %
MI (Mean ± SD) (bone marrow cells; 40 mg/kgbw, 48 h): 1.98 ± 0.08 *^,a %
MI (Mean ± SD) (bone marrow cells; 40 mg/kgbw, 72 h): 2.05 ± 0.14 *^,a %
MI (Mean ± SD) (bone marrow cells; 60 mg/kgbw, 24 h): 1.92 ± 0.61 *^,a %
MI (Mean ± SD) (bone marrow cells; 60 mg/kgbw, 48 h): 1.97 ± 0.12 *^,a %
MI (Mean ± SD) (bone marrow cells; 60 mg/kgbw, 72 h): 1.95 ± 0.04 *^,a %
Structural Aberrations Assoc (bone marrow cells; 20 mg/kgbw, 24 h): 4
Structural Aberrations Assoc (bone marrow cells; 20 mg/kgbw, 48 h): 5
Structural Aberrations Assoc (bone marrow cells; 20 mg/kgbw, 72 h): 0
Structural Aberrations Assoc (bone marrow cells; 40 mg/kgbw, 24 h): 6
Structural Aberrations Assoc (bone marrow cells; 40 mg/kgbw, 48 h): 6
Structural Aberrations Assoc (bone marrow cells; 40 mg/kgbw, 72 h): 1
Structural Aberrations Assoc (bone marrow cells; 60 mg/kgbw, 24 h): 4
Structural Aberrations Assoc (bone marrow cells; 60 mg/kgbw, 48 h): 7
Structural Aberrations Assoc (bone marrow cells; 60 mg/kgbw, 72 h): 1
Structural Aberrations Brk (bone marrow cells; 20 mg/kgbw, 24 h): 2
Structural Aberrations Brk (bone marrow cells; 20 mg/kgbw, 48 h): 9
Structural Aberrations Brk (bone marrow cells; 20 mg/kgbw, 72 h): 2
Structural Aberrations Brk (bone marrow cells; 40 mg/kgbw, 24 h): 4
Structural Aberrations Brk (bone marrow cells; 40 mg/kgbw, 48 h): 3
Structural Aberrations Brk (bone marrow cells; 40 mg/kgbw, 72 h): 5
Structural Aberrations Brk (bone marrow cells; 60 mg/kgbw, 24 h): 6
Structural Aberrations Brk (bone marrow cells; 60 mg/kgbw, 48 h): 7
Structural Aberrations Brk (bone marrow cells; 60 mg/kgbw, 72 h): 8
Structural Aberrations Del (bone marrow cells; 20 mg/kgbw, 24 h): 4
Structural Aberrations Del (bone marrow cells; 20 mg/kgbw, 48 h): 5
Structural Aberrations Del (bone marrow cells; 20 mg/kgbw, 72 h): 4
Structural Aberrations Del (bone marrow cells; 40 mg/kgbw, 24 h): 4
